Converted amounts (≈) assume the structure as drawn. Like-named read-outs stand apart in the source and are kept apart here.
Test system: Staphylococcus aureus
Experiment: standard microtiter assay, minimum inhibitory concentration
Assay type: cell-based
In short: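 Standard microtiter broth assays, with MIC reported in μg/ml and averaged over several strains per species. The CWI-785 complex was tested, in some cases as HCl salts. Some runs used no serum, 50% human serum or 50% mouse serum.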

[1] = Table 4, S. aureus (30 strains)

Question: How did the MIC50 (Staphylococcus aureus) turn out when `CN[C@H](CC(C)C)C(=O)N[C@H]1C(=O)N[C@@H](CC(N)=O)C(=O)N[C@H]2C(=O)N[C@H]3C(=O)N[C@H](C(=O)N[C@H](C(=O)O)c4cc(O)cc(O)c4-c4cc3ccc4O)[C@H](O)c3ccc(c(Cl)c3)Oc3cc2cc(c3O[C@@H]2O[C@H](CO)[C@@H](O)[C@H](O)[C@H]2O[C@H]2C[C@](C)(N)[C@H](O)[C@H](C)O2)Oc2ccc(cc2Cl)[C@H]1O` [Vancomycin, vancomycin] was run?
Answer: 1.6 µg/mL (≈ 1.1 µM)

Question: And the MIC (Staphylococcus aureus, Table 5 organism 1 S. aureus, 50% Hum. Serum)?
Answer: 3.1 µg/mL (≈ 2.14 µM)

Question: And the MIC (Staphylococcus aureus, Table 5 organism 1 S. aureus, 50% Mse. Serum)?
Answer: 1.6 µg/mL (≈ 1.1 µM)

Question: What about the MIC (Staphylococcus aureus, Table 5 organism 1 S. aureus, No Serum) of the same molecule?
Answer: 1.6 µg/mL (≈ 1.1 µM)

Question: And the MIC (Staphylococcus aureus, read-out: minimum inhibitory concentration, Table 1 test organism 1, S. aureus strain)?
Answer: 1.6 µg/mL (≈ 1.1 µM)

Question: What about the MIC (Staphylococcus aureus, read-out: minimum inhibitory concentration, Table 1 test organism 2, S. aureus strain) of the same molecule?
Answer: 1.6 µg/mL (≈ 1.1 µM)

Question: And the MIC (Staphylococcus aureus, read-out: minimum inhibitory concentration, Table 1 test organism 3, S. aureus strain)?
Answer: 1.6 µg/mL (≈ 1.1 µM)

Question: And the MIC (Staphylococcus aureus, read-out: minimum inhibitory concentration, Table 1 test organism 4, S. aureus strain)?
Answer: 1.6 µg/mL (≈ 1.1 µM)

Question: What about the MIC (Staphylococcus aureus, read-out: minimum inhibitory concentration, Table 1 test organism 5, S. aureus strain) of the same molecule?
Answer: 1.6 µg/mL (≈ 1.1 µM)

Question: And the MIC (Staphylococcus aureus, read-out: minimum inhibitory concentration, Table 1 test organism 6, S. aureus strain)?
Answer: 1.6 µg/mL (≈ 1.1 µM)

Question: And the MIC (Staphylococcus aureus, read-out: minimum inhibitory concentration, Table 1 test organism 7, S. aureus strain)?
Answer: 3.1 µg/mL (≈ 2.14 µM)

Question: What about the MIC (Staphylococcus aureus, read-out: minimum inhibitory concentration, Table 1 test organism 8, S. aureus strain) of the same molecule?
Answer: 1.6 µg/mL (≈ 1.1 µM)

Question: What about the MIC (Staphylococcus aureus, read-out: minimum inhibitory concentration, Table 1 test organism 9, S. aureus strain) of the same molecule?
Answer: 1.6 µg/mL (≈ 1.1 µM)

Question: And the MIC (Staphylococcus aureus, read-out: minimum inhibitory concentration, Table 1 test organism 10, S. aureus strain)?
Answer: 1.6 µg/mL (≈ 1.1 µM)

Question: What about the MIC (Staphylococcus aureus, read-out: minimum inhibitory concentration, Table 1 test organism 11, S. aureus strain) of the same molecule?
Answer: 1.6 µg/mL (≈ 1.1 µM)

Question: And the MIC (Staphylococcus aureus, read-out: minimum inhibitory concentration, Table 1 test organism 12, S. aureus strain)?
Answer: 1.6 µg/mL (≈ 1.1 µM)

Question: What about the MIC (Staphylococcus aureus, read-out: minimum inhibitory concentration, Table 1 test organism 13, S. aureus strain) of the same molecule?
Answer: 0.8 µg/mL (≈ 0.552 µM)

Question: What about the MIC (Staphylococcus aureus, read-out: minimum inhibitory concentration, Table 2 test organism 1, S. aureus strain) of the same molecule?
Answer: 1.6 µg/mL (≈ 1.1 µM)

Question: And the MIC (Staphylococcus aureus, read-out: minimum inhibitory concentration, Table 2 test organism 2, S. aureus strain)?
Answer: 1.6 µg/mL (≈ 1.1 µM)

Question: And the MIC (Staphylococcus aureus, read-out: minimum inhibitory concentration, Table 2 test organism 3, S. aureus strain)?
Answer: 1.6 µg/mL (≈ 1.1 µM)

Question: And the MIC (Staphylococcus aureus, read-out: minimum inhibitory concentration, Table 2 test organism 4, S. aureus strain)?
Answer: 1.6 µg/mL (≈ 1.1 µM)

Question: And the MIC (Staphylococcus aureus, read-out: minimum inhibitory concentration, Table 2 test organism 5, S. aureus strain)?
Answer: 1.6 µg/mL (≈ 1.1 µM)

Question: What about the “MIC RANGE” value [1] of the same molecule?
Answer: 1.6 to 6.3 µg/mL

Question: Which minimum inhibitory concentration (Table 1 test organism 1, S. aureus strain) does the source give for teicoplanin here?
Answer: 1.6 µg/mL

Question: And the minimum inhibitory concentration (Table 1 test organism 2, S. aureus strain)?
Answer: 1.6 µg/mL

Question: And the minimum inhibitory concentration (Table 1 test organism 3, S. aureus strain)?
Answer: 3.1 µg/mL

Question: What about the minimum inhibitory concentration (Table 1 test organism 4, S. aureus strain) of the same molecule?
Answer: 1.6 µg/mL

Question: What about the minimum inhibitory concentration (Table 1 test organism 5, S. aureus strain) of the same molecule?
Answer: 1.6 µg/mL

Question: And the minimum inhibitory concentration (Table 1 test organism 6, S. aureus strain)?
Answer: 1.6 µg/mL

Question: And the minimum inhibitory concentration (Table 1 test organism 7, S. aureus strain)?
Answer: 3.1 µg/mL

Question: And the minimum inhibitory concentration (Table 1 test organism 8, S. aureus strain)?
Answer: 6.3 µg/mL

Question: And the minimum inhibitory concentration (Table 1 test organism 9, S. aureus strain)?
Answer: 6.3 µg/mL

Question: What about the minimum inhibitory concentration (Table 1 test organism 10, S. aureus strain) of the same molecule?
Answer: 6.3 µg/mL

Question: And the minimum inhibitory concentration (Table 1 test organism 11, S. aureus strain)?
Answer: 3.1 µg/mL

Question: And the minimum inhibitory concentration (Table 1 test organism 12, S. aureus strain)?
Answer: 3.1 µg/mL

Question: And the minimum inhibitory concentration (Table 1 test organism 13, S. aureus strain)?
Answer: 0.8 µg/mL

Question: What about the minimum inhibitory concentration (Table 2 test organism 1, S. aureus strain) of the same molecule?
Answer: 3.1 µg/mL

Question: What about the minimum inhibitory concentration (Table 2 test organism 2, S. aureus strain) of the same molecule?
Answer: 0.8 µg/mL

Question: And the minimum inhibitory concentration (Table 2 test organism 3, S. aureus strain)?
Answer: 0.4 µg/mL

Question: And the minimum inhibitory concentration (Table 2 test organism 4, S. aureus strain)?
Answer: 3.1 µg/mL

Question: And the minimum inhibitory concentration (Table 2 test organism 5, S. aureus strain)?
Answer: 1.6 µg/mL

Question: And the MIC50 [1]?
Answer: 3.1 µg/mL

Question: And the “MIC RANGE” value [1]?
Answer: 1.6 to 6.3 µg/mL

Question: And the MIC (Table 5 organism 1 S. aureus, 50% Hum. Serum)?
Answer: 6.3 µg/mL

Question: What about the MIC (Table 5 organism 1 S. aureus, 50% Mse. Serum) of the same molecule?
Answer: 25.0 µg/mL

Question: And the MIC (Table 5 organism 1 S. aureus, No Serum)?
Answer: 3.1 µg/mL

— patent US4742045A, “Glycopeptide antibiotics” (SmithKline Beckman Corporation, priority 1986, dated 1988)
